# According to patent publication US9200333B2, “Methods for identifying modulators of murine double minute 2” (Indiana University Research and Technology Corporation, priority 2012, dated 2015):
# Experiments:
# Assay type in all cases: cell-based, human
# [1] = system: Mdm2 protein levels in MCF7 cells; experiment: Western blot of endogenous Mdm2 protein levels in MCF7 cells
# Protocol: (§1) Mammalian cells (H1299 and MCF7) were cultured at 37° C. in a humidified incubator with 5% CO2 in DMEM high glucose plus 10% FBS. Transfection in H1299 was performed using a calcium phosphate method and in MCF7 using Lipofectamine Plus reagent (Invitrogen). Equal amounts of DNA were transfected into cells and incubated for the indicated times prior to analysis. PPI (Calbiochem) and MLN4924 (LifeSensors) were used at concentrations provided. Site-directed mutagenesis was performed by PCR, and constructs were sequenced in their entirety.
# (§2) Whole cell lysates (Lysates) were prepared in Nonidet P-40 lysis buffer (25 mM Tris, pH 8.0, 150 mM NaCl, 0.5 mM EDTA, 0.5 mM EGTA, 1% Nonidet P-40, 1 mM sodium orthovanadate, 1 mM DTT) and supplemented with protease inhibitor mixture set III (Calbiochem) at 1:100 and incubated on ice for 30 min. Debris was collected by centrifugation, and equal amounts of supernatant protein were determined by BioRad assay. Protein was fractionated by SDS-PAGE and transferred to PVDF membrane (Amersham Biosciences). Antibodies used for Western blotting were: Mdm2 (SMP14, 2Al0, and 4Bl1), c-Src (B-12; Santa Cruz), p53 (DO-1), tubulin (TU-02), GAPDH (8C2), and β-actin (C4; Santa Cruz Biotechnology); phosphotyrosine (4010; Upstate); phospho-c-Src Tyr^416 (Cell Signaling); Myc (9E10) and HA (12CA5) Immunoprecipitation from lysates was performed using 500 ng of either SMP14 for Mdm2, HA (12CA5), p53 (D01) or c-Src (B-12) antibody overnight at 4° C. in 700 μl of PBS. Protein A/G Plus Agarose (Santa Cruz Biotechnology) was added to the mixture and incubated an additional 2 hrs at 4° C., precipitates were washed three times in PBS, and samples were resuspended in SDS loading buffer and boiled for 5 min.
# To examine how c-Src regulates endogenous Mdm2 protein levels, c-Src was activated through epidermal growth factor (EGF) stimulation of MCF7 cells. MCF7 cells were serum-starved for 48 hrs and then treated with 200 ng/mL of EGF for a time course of 2 hrs. […]
# p53 levels in MCF7 cells = experiment: Western blot of endogenous p53 levels in MCF7 cells
# Protocol: as §2
# To examine endogenous p53 levels, MCF 7 cells were transfected with increasing amounts of CA-Src. […]
# [2] = system: p53 activity (PG13-Luc) in H1299 cells; experiment: PG13-Luc luciferase assay in H1299 cells transfected with p53, Mdm2 and CA-Src; conditions: H1299 cells transfected with PG-13-luc, FIG. 32
# Protocol: (§3) For the luciferase assays, H1299 and MCF7 cells were transfected with PG13-Luc, Mdm2-P2-Luc, Maspin-Luc or Mutant Maspin-Luc (MT1) along with Myc-LacZ for determination of […] activity, using the calcium phosphate method. Reporter activity was normalized to […] activity. Data generated were done in triplicate and standard deviation was calculated from the mean.
# H1299 cells were transfected with the PG-13-luc, p53, Mdm2 and CA-Src. Reduction in p53 activity by Mdm2 was further increased in the presence of c-Src.
# [3] = system: neddylating activity of Mdm2 (neddylated p53) in H1299 cells; experiment: Western blot of neddylated p53 in H1299 cells transfected with p53, Mdm2 and CA-Src; conditions: vs DMSO, FIG. 29
# Protocol: as §1
# H1299 cells were transfected with His-Ubiquitin or His-Nedd8 and other plasmids as indicated using calcium phosphate method. 48 hours after transfection, cells were lysed in 1 ml of 6M guanidinium-HCl, 0.1M Na2HPO4/NaH2PO4, 0.01M Tris-HCl pH 8.0 plus 5 mM Imidazole and 10 mM β-mercaptoethanol. After sonication, the lysates were mixed with 30 μl of Ni^2+-NTA-agarose beads (Qiagen) prewashed with lysis buffer and incubated for 2 hours at room temperature. The beads were successively washed and eluted.
# Based on transient transfection data that supported its role as a neddylating enzyme, the affect of pharmacological inhibition of neddylating activity of Mdm2 using MLN4924 was determined.
# [4] = system: p53 activity on the maspin promoter in MCF7 cells; experiment: Maspin-Luc luciferase assay in MCF7 cells; conditions: 16 hrs, FIG. 35
# Protocol: as §3
# To ensure that the decrease seen on the maspin promoter was due to c-Src phosphorylation of Mdm2, another luciferase assay was done using the Y281-302F Mdm2 and CA-Src. […] For further insight on how endogenous neddylation of p53 would affect maspin level, MCF7 cells were transfected with the maspin-Luc construct or a mutant maspin-Luc (MT1) that is unresponsive to p53, to ensure luciferase activity was dependent on p53. c-Src was then inhibited for 16 hrs using PP1 and a luciferase assay was performed. […] These findings provide insight into the regulation of c-Src-induced neddylation of p53. This neddylation event is responsible for the further reduction in p53 activity on both the PG13-Luc and on its ability to activate the tumor suppressor maspin (FIG. 37).
# [5] = system: endogenous Mdm2 tyrosine phosphorylation in MCF7 cells; experiment: Immunoprecipitation of Mdm2 from MCF7 extracts and immunoblot for phosphorylated tyrosine; conditions: MCF7 cells pretreated 16 hrs; FIG. 8
# Protocol: as §1
# Whole cell lysates (Lysates) were prepared in Nonidet P-40 lysis buffer (25 mM Tris, pH 8.0, 150 mM NaCl, 0.5 mM EDTA, 0.5 mM EGTA, 1% Nonidet P-40, 1 mM sodium orthovanadate, 1 mM DTT) and supplemented with protease inhibitor mixture set III (Calbiochem) at 1:100 and incubated on ice for 30 min. Debris was collected by centrifugation, and equal amounts of supernatant protein were determined by BioRad assay. Protein was fractionated by SDS-PAGE and transferred to PVDF membrane (Amersham Biosciences). […]
# First, H1299 cells were transfected with HA-tagged Mdm2 (HA-Mdm2) with either constitutively active c-Src (CA-Src) or a kinase dead Src (KD-Src). […] Along with overexpression, whether c-Src could phosphorylate endogenous Mdm2 was determined. […]
# [6] = system: maspin protein in MCF7 cells; experiment: Western blot of Maspin in MCF7 cells; conditions: vs DMSO, FIG. 36
# Protocol: as §2
# To ensure that the decrease seen on the maspin promoter was due to c-Src phosphorylation of Mdm2, another luciferase assay was done using the Y281-302F Mdm2 and CA-Src. […]
# [7] = system: endogenous neddylated p53 in MCF7 cells; experiment: Immunoprecipitation of p53 from MCF7 cells and anti-Nedd8 immunoblot; conditions: vs DMSO, FIG. 30
# Protocol: as §2
# To determine the role of c-Src on endogenous neddylation of p53, the c-Src inhibitor PP1 was used to treat MCF7 cells. MCF7 cells were treated with PP1, and p53 was immunoprecipitated from cell extracts. […]
# mdm2 P2 promoter = experiment: mdm2-P2-Luc luciferase reporter assay in MCF7 cells; conditions: vs DMSO, FIG. 16
# Protocol: as §3
# To determine whether c-Src altered mdm2 gene expression, a luciferase reporter assay was conducted in which the mdm2 P2 promoter was attached to luciferase.
molecule,measurement,setting,value
EGF: epidermal growth factor used to activate c-Src in MCF7 cells,Mdm2 protein levels on EGF stimulation,"[1]; MCF7 cells serum-starved 48 hrs, 200 ng/mL, time course of 2 hrs, FIG. 12",increase of Mdm2 protein levels
same,p53 levels on EGF stimulation,"p53 levels in MCF7 cells; MCF7 cells serum starved 48 hours, 1-hour time course, FIG. 23",increase in p53
NS(=O)(=O)OC[C@@H]1C[C@@H](n2ccc3c(N[C@H]4CCc5ccccc54)ncnc32)C[C@@H]1O [MLN4924],p53 activity (PG13-Luc),[2],restored p53 activity to levels observed with Mdm2 alone
same,neddylated p53,[3],loss of neddylated p53
Cc1ccc(-c2nn(C(C)(C)C)c3ncnc(N)c23)cc1 [PP1],p53 activity on maspin-Luc construct,[4],increase of p53 activity on the maspin-Luc construct
same,Mdm2 levels,"[1]; MCF7 cells, increasing concentrations (1, 5, 10, 15, 20 μM), FIG. 14",dose-dependent decrease in Mdm2 levels
same,Mdm2 protein level after EGF,"[1]; serum starved MCF7 cells pre-treated 1 hr before addition of EGF, FIG. 13",no apparent increase in Mdm2
same,endogenous Mdm2 tyrosine phosphorylation,[5],loss of endogenous Mdm2 tyrosine phosphorylation
same,maspin protein level,[6],maspin protein was increased
same,p53 levels,"p53 levels in MCF7 cells; MCF7 cells, increasing concentrations (1, 5, 10, 15, 20 μM), FIG. 24",dose dependent decrease in p53 levels
same,endogenous neddylated p53,[7],decrease in endogenous neddylated p53
same,mdm2 promoter luciferase activity,mdm2 P2 promoter,No difference
